One experiment concerns the target SUV39H2 (Homo sapiens (Human), UniProt Q9H5I1). The settings on record: read-out: IC50 (μM) Suv 39H2 assay; enzyme assay.
For another experiment, the system named is PC14. Nature of the experiment: Cell-based assay, anti-proliferative activity (Cell Counting Kit-8, 72 hours). The settings on record: Homo sapiens, read-out: IC50 (μM) PC14. Put shortly:
(§1)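 Anti-proliferative IC50 obtained from 96-well cultures treated 72 h with inhibitor at 0–100 micro-M, growth assessed by a CCK-8 colorimetric readout.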
Background: Tetrazolium assays rely on reduction of a dye to a coloured formazan, in cell work by metabolically active cells.

The next experiment has as its system HFL1. The experiment is described as above. The following applies: Homo sapiens, read-out: IC50 (μM) HFL1. A digest of the protocol: as §1
The subject of another experiment is CCD-18Co. The description is as above. The settings on record: Homo sapiens, read-out: IC50 (μM) CCD-18Co. A digest of the protocol: as §1
A further experiment concerns HCT-116. Described as above. The following applies: Homo sapiens, read-out: IC50 (μM) HCT-116. Put shortly: as §1
The subject of another experiment is A549. The experiment is described as above. The settings on record: Homo sapiens, read-out: IC50 (μM) A549. Put shortly:
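After compound exposure of cells in 96-well plates, growth was measured colorimetrically and converted into IC50 values.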

The mark [1] stands for this setting: PC-14, PC14 cells, Cell Counting Kit-8, 72 hours.
Setting [2] is: HFL1 cells, Cell Counting Kit-8, 72 hours.
The mark [3] stands for this setting: CCD-18Co cells, Cell Counting Kit-8, 72 hours.
Setting [4] is: HCT-116 cells, Cell Counting Kit-8, 72 hours.
[5] abbreviates: A549 cells, Cell Counting Kit-8, 72 hours.
The mark [6] stands for this setting: PC-14, PC14 cells, 72 hours, Cell Counting Kit-8.
[7] abbreviates: HFL1 cells, 72 hours, Cell Counting Kit-8.
Where [8] appears, read: CCD-18Co cells, 72 hours, Cell Counting Kit-8.
The mark [9] stands for this setting: HCT-116 cells, 72 hours, Cell Counting Kit-8.
Setting [10] is: A549 cells, 72 hours, Cell Counting Kit-8.

Where two headings read alike, the source gives them in different places.

Sequence of SUV39H2 (Q9H5I1 whole entry): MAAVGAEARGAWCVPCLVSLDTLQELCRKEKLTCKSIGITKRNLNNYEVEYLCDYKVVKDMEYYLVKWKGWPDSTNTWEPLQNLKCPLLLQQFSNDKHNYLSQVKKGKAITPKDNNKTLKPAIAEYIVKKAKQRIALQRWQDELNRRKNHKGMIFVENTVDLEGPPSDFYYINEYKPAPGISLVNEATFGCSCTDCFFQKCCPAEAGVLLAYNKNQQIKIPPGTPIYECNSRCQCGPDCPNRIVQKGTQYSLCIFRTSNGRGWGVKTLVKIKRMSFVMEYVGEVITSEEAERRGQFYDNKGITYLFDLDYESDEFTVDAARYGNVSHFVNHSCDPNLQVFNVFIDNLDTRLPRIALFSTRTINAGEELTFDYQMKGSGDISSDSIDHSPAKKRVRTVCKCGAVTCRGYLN

One may read the IC50 as the concentration needed to halve the response being measured. Regarding `COc1cc(OC)c(-c2cn3ccc(N4CCC(O)C4)cc3n2)cc1Br` (stereo not drawn) [Example 7, 1-(2-(5-bromo-2,4-dimethoxyphenyl)imidazo[1,2-a]pyridin-7-yl)pyrrolidin-3-ol], the IC50 at SUV39H2 is 0.00544 µM; in the experiment with PC14 (PC-14, 72 h), 6.1 µM; in the experiment with HFL1 (HFL1, 72 h), 6.8 µM; in the experiment on CCD-18Co (CCD-18Co, 72 h) it was 7.6 µM; in the experiment on HCT-116 (HCT-116, 72 h), 7 µM; with A549 (A549, 72 h) it was 6.9 µM.

As to `COc1cc(OC)c(-c2cn3ccc(N4CCN(CCN5CCCC5)CC4)cc3n2)cc1Cl` [Example 143, 2-(5-chloro-2,4-dimethoxyphenyl)-7-(4-(2-(pyrrolidin-1-yl)ethyl)piperazin-1-yl)imidazo[1,2-a]pyridine], the IC50 at SUV39H2 was 0.0044 µM; with PC14 (setting [1]) it was 4.4 µM; with HFL1 (setting [2]) it was 8.5 µM; in the experiment with CCD-18Co (setting [3]) it was 2.7 µM; in the experiment on HCT-116 (setting [4]), 8.1 µM; in the experiment with A549 (setting [5]) it was 4 µM.

Turning to `CCOP(=O)(CCN1CCN(c2ccn3cc(-c4cc(Cl)c(OC)cc4OCCCN(C)C)nc3c2)CC1)OCC` [Example 219, diethyl (2-(4-(2-(5-chloro-2-(3-(dimethylamino)propoxy)-4-methoxyphenyl)-imidazo[1,2-a]pyridin-7-yl)piperazin-1-yl)ethyl)phosphonate], the IC50 was 0.0201 µM at SUV39H2; 7.6 µM with PC14 (setting [6]); 7.4 µM in the experiment with HFL1 (setting [7]); 10 µM with CCD-18Co (setting [8]); 10 µM with HCT-116 (setting [9]); 10 µM in the experiment with A549 (setting [10]).

Take `COc1cc(OCCCN(C)C)c(-c2cn3ccc(N4CCC(NC(=O)C(C)(C)C)CC4)cc3n2)cc1Cl` [Example 162, N-(1-(2-(5-chloro-2-(3-(dimethylamino)propoxy)-4-methoxyphenyl)-imidazo[1,2-a]pyridin-7-yl)piperidin-4-yl)pivalamide]: the 50% inhibitory concentration (IC50) on SUV39H2 worked out at 0.0211 µM; in the experiment on PC14 (setting [1]) it was 2.1 µM; in the experiment with HFL1 (setting [2]) it was 2.1 µM; in the experiment on CCD-18Co (setting [3]) it was 5 µM; in the experiment with HCT-116 (setting [4]), 3.3 µM; with A549 (setting [5]), 2.8 µM.

On to `COc1cc(OCCCN(C)C)c(-c2cn3ccc(N4CCN(S(=O)(=O)N(C)C)CC4)cc3n2)cc1Cl` [Example 196, 4-(2-{5-Chloro-2-[3-(dimethylamino)propoxy]-4-methoxyphenyl}imidazo[1,2-a]pyridin-7-yl)-N,N-dimethylpiperazine-1-sulfonamide], for which the IC50 on SUV39H2 turned out to be 0.0147 µM; in the experiment on PC14 (setting [1]) it was 1.9 µM; in the experiment with HFL1 (setting [2]) it was 2.4 µM; in the experiment with CCD-18Co (setting [3]), 2.8 µM; in the experiment with HCT-116 (setting [4]), 2.2 µM; with A549 (setting [5]) it was 2.1 µM.

Turning to `COc1cc(OC)c(-c2cn3ccc(C4CCC(N)CC4)cc3n2)cc1Cl` (stereo not drawn) [Example 125, 4-(2-(5-chloro-2,4-dimethoxyphenyl)imidazo[1,2-a]pyridin-7-yl)-cyclohexanamine], the 50% inhibitory concentration (IC50) at SUV39H2 came out at 0.0651 µM; in the experiment with PC14 (setting [1]), 5 µM; in the experiment on HFL1 (setting [2]) it was 2.7 µM; in the experiment with CCD-18Co (setting [3]), 2.9 µM; in the experiment with HCT-116 (setting [4]) it was 2.7 µM; with A549 (setting [5]) it was 2.3 µM.

For `COc1ccc(CN[C@H]2CCN(c3ccn4cc(-c5cc(Cl)c(OC)cc5OC)nc4c3)C2)cc1` [Example 306, (S)-1-(2-(5-chloro-2,4-dimethoxyphenyl)imidazo[1,2-a]pyridin-7-yl)-N-(4-methoxybenzyl)pyrrolidin-3-amine], the IC50 on SUV39H2 was determined as 0.00881 µM; in the experiment on PC14 (setting [6]) it was 1.4 µM; in the experiment on HFL1 (setting [7]) it was 0.72 µM; with CCD-18Co (setting [8]), 1.4 µM; in the experiment on HCT-116 (setting [9]), 0.69 µM; in the experiment with A549 (setting [10]), 1.3 µM.

Turning to `COc1cc(OC)c(-c2cn3ccc(N4CCN(P(=O)(OC)OC)CC4)cc3n2)cc1Cl` [Example 203, dimethyl {4-[2-(5-chloro-2,4-dimethoxyphenyl)imidazo[1,2-a]pyridin-7-yl]piperazin-1-yl}phosphonate], the 50% inhibitory concentration (IC50) at SUV39H2 was 0.00177 µM; in the experiment with PC14 (PC-14, 72 h) it was 1.8 µM; in the experiment on HFL1 (HFL1, 72 h), 4 µM; with CCD-18Co (CCD-18Co, 72 h), 6 µM; with HCT-116 (HCT-116, 72 h), 5.1 µM; in the experiment with A549 (A549, 72 h), 3.9 µM.

With `COc1cc(OC)c(-c2cn3ccc(NC(=O)[C@@H](N)C(C)C)cc3n2)cc1Cl` [Example 252, (S)-2-amino-N-(2-(5-chloro-2,4-dimethoxyphenyl)imidazo[1,2-a]pyridin-7-yl)-3-methylbutanamide], the concentration for half-maximal inhibition (IC50) on SUV39H2 was determined as 0.0423 µM; with PC14 (PC-14, 72 h), 6.3 µM; in the experiment on HFL1 (HFL1, 72 h), 5.9 µM; with CCD-18Co (CCD-18Co, 72 h), 4.7 µM; in the experiment on HCT-116 (HCT-116, 72 h), 5.4 µM; in the experiment on A549 (A549, 72 h), 7.8 µM.

Turning to `COc1cc(OC)c(-c2cn3ccc(N[C@H]4CC[C@H](CN5CCN(Cc6ccccc6)CC5)CC4)cc3n2)cc1Cl` [Example 278, trans-N-(4-((4-benzylpiperazin-1-yl)methyl)cyclohexyl)-2-(5-chloro-2,4-dimethoxyphenyl)imidazo[1,2-a]pyridin-7-amine 2,2,2-trifluoroacetate], the IC50 on SUV39H2 amounted to 0.0707 µM; with PC14 (PC-14, 72 h) it was 1.3 µM; with HFL1 (HFL1, 72 h), 0.73 µM; with CCD-18Co (CCD-18Co, 72 h), 1.2 µM; in the experiment on HCT-116 (HCT-116, 72 h), 0.84 µM; with A549 (setting [10]), 1.4 µM.

For `COc1cc(OC)c(-c2cn3ccc(N4CC[C@H](NC(=O)OC(C)(C)C)C4)cc3n2)cc1Cl` [Example 44, (S)-tert-butyl (1-(2-(5-chloro-2,4-dimethoxyphenyl)imidazo[1,2-a]pyridin-7-yl)-pyrrolidin-3-yl)carbamate], the half-maximal inhibitory concentration (IC50) at SUV39H2 is 0.00982 µM; in the experiment on PC14 (setting [1]), 1.6 µM; with HFL1 (setting [2]) it was 1.1 µM; in the experiment on CCD-18Co (setting [3]), 2.2 µM; in the experiment with HCT-116 (setting [4]) it was 3.4 µM; in the experiment on A549 (setting [5]), 3 µM.

Turning to `CC[C@@H](C)[C@H](NC(=O)OC(C)(C)C)C(=O)Nc1ccn2cc(-c3cc(Cl)c(OC)cc3OC)nc2c1` [Example 257, tert-butyl ((2S,3R)-1-((2-(5-chloro-2,4-dimethoxyphenyl)imidazo[1,2-a]-pyridin-7-yl)amino)-3-methyl-1-oxopentan-2-yl)carbamate], the IC50 turned out to be 0.0435 µM on SUV39H2; 3 µM in the experiment with PC14 (setting [6]); 5.2 µM with HFL1 (setting [7]); 5.1 µM in the experiment with CCD-18Co (setting [8]); 5.5 µM in the experiment with HCT-116 (setting [9]); 5 µM with A549 (setting [10]).

With `COc1cc(OC)c(-c2cn3ccc(N4CCN(c5ccc(C#N)cn5)CC4)cc3n2)cc1Cl` [Example 293, 6-(4-(2-(5-chloro-2,4-dimethoxyphenyl)imidazo[1,2-a]pyridin-7-yl)-piperazin-1-yl)nicotinonitrile], the 50% inhibitory concentration (IC50) on SUV39H2 came to 0.0226 µM; with PC14 (setting [6]) it was 1 µM; in the experiment on HFL1 (setting [7]) it was 1.3 µM; in the experiment on CCD-18Co (setting [8]), 0.62 µM; with HCT-116 (setting [9]), 0.33 µM; with A549 (setting [10]), 0.67 µM.

Turning to `COc1cc(OC)c(-c2cn3ccc(C4=CCN(CCN5CCCCC5)CC4)cc3n2)cc1Cl` [Example 147, 2-(5-chloro-2,4-dimethoxyphenyl)-7-(1-(2-(piperidin-1-yl)ethyl)-1,2,3,6-tetrahydropyridin-4-yl)imidazo[1,2-a]pyridine], the concentration for half-maximal inhibition (IC50) on SUV39H2 turned out to be 0.0295 µM; with PC14 (setting [1]), 5.9 µM; in the experiment on HFL1 (setting [2]) it was 8.7 µM; in the experiment with CCD-18Co (setting [3]), 6 µM; with HCT-116 (setting [4]) it was 7.3 µM; in the experiment with A549 (setting [5]), 7 µM.

Consider `COc1cc(OC)c(-c2cn3ccc(N4CCN(C(=O)C5CCCC5)CC4)cc3n2)cc1Cl` [Example 241, (4-(2-(5-chloro-2,4-dimethoxyphenyl)imidazo[1,2-a]pyridine-7-yl)piperazin-1-yl)(cyclopentyl)methanone], for which the concentration for half-maximal inhibition (IC50) at SUV39H2 is 0.00768 µM; with PC14 (setting [6]), 1.6 µM; with HFL1 (setting [7]), 1.5 µM; in the experiment on CCD-18Co (setting [8]), 2.5 µM; in the experiment on HCT-116 (setting [9]) it was 2.4 µM; with A549 (setting [10]), 2.3 µM.

Regarding `COc1cc(OC)c(-c2cn3ccc(N4CCN(C5CCCC5)CC4)cc3n2)cc1Cl` [Example 239, 2-(5-chloro-2,4-dimethoxyphenyl)-7-(4-cyclopentylpiperazin-1-yl)imidazo[1,2-a]pyridine], the IC50 at SUV39H2 came out at 0.021 µM; with PC14 (setting [6]), 1.8 µM; in the experiment on HFL1 (setting [7]) it was 1.7 µM; with CCD-18Co (setting [8]), 2.1 µM; in the experiment on HCT-116 (setting [9]), 1.5 µM; in the experiment with A549 (setting [10]) it was 1.5 µM.

Take `COc1cc(OC)c(-c2cn3ccc(N4CCN(S(C)(=O)=O)CC4)cc3n2)cc1Cl` [Example 169, 2-(5-chloro-2,4-dimethoxyphenyl)-7-[4-(methylsulfonyl)piperazin-1-yl]imidazo[1,2-a]pyridine]: the concentration for half-maximal inhibition (IC50) at SUV39H2 is 0.0101 µM; with PC14 (setting [1]), 2.2 µM; with HFL1 (setting [2]), 4.7 µM; in the experiment on CCD-18Co (setting [3]) it was 2.8 µM; in the experiment with HCT-116 (setting [4]), 2.1 µM; with A549 (setting [5]), 1.8 µM.

The record behind these values is patent publication US10508109B2 (priority 2015, dated 2019).
